In patent US5618665A, “Enzymatic fluorometric assay for adenylate cyclase” (Regents of the University of Minnesota, priority 1994, dated 1997):

Tests used:
[1] = tested on: adenylate cyclase; assay: Radioactive adenylate cyclase assay (modified Salomon, alpha-32P-ATP), rabbit ventricular membranes; assay type: biochemical, rabbit (New Zealand white); conditions: Iso 10^-6 M; GppNHp 10^-4 M; NaF 10^-2 M; n = 5
Method: (§1) Ventricular membrane preparations were prepared from five male New Zealand white rabbits (weight 2.4 kg; W.O.R.K., Philomith, Oreg.) sacrificed by cervical concussion and immediate incision of the heart as previously described. Briefly, hearts were placed in ice-cold SET buffer (0.25M sucrose, 0.1 mM EDTA, 5.0 mM Tris HCl, pH 7.4). Portions (1-2 g) from the ventricular apex were minced and then homogenized in ice-cold SET buffer (1/10, w/v). The homogenate was filtered through a Nitex filter (three layers) (Tetko, Los Angeles, Calif.) and then centrifuged for 20 min. at 1000×g. The pellet was resuspended and centrifuged three more times. The final pellet was resuspended in SET buffer (1.5 mg protein/ml) and stored at -70° C. until enzyme activity was measured.
A volume of 1.0 μl of either H2 O, NaF, guanylyl-5'-imidodiphosphate (GppNHp), isoproterenol, or isoproterenol+GppNHp were added to each of five reaction tubes and maintained at 0° C. […] Finally 25 μl of membrane suspension ([…]) were added to each tube and the reaction was initiated by placing the tubes in a water bath at 37° C. After 30 minutes, the reaction was terminated by the addition of 300 μl of a stopping solution which contained 0.34 HCl and ^3 H-cAMP, 10,000-20,000 cpm.
To generate the graph depicted in FIG. 2, 250 μl portions of reaction mixture A and membrane were used and 50 μl samples were removed from the 37° C. bath every 10 minutes, and stopped with 300 μl stopping solution. The assay tubes were heated at 95° C. for 5 minutes. ^32 P-cAMP was isolated using Dowex-alumina chromatography. Recovery, as assessed by ^3 H-cAMP, was 80-95%. All assays were conducted in triplicate. The time course of adenylate cyclase activity (n=5 different rabbit ventricular membrane preparations) is depicted in FIG. 1. Basal AC and agonist stimulated (0.1 mM GppNHp, 0.1 mM) AC are compared. The activity shown is (isoproterenol+GppNHp-stimulated AC activity) minus (GppNHp-stimulated activity). […]

[2] = tested on: adenylate cyclase; assay: Fluorometric (non-radioactive) adenylate cyclase assay, rabbit ventricular membranes; assay type: biochemical, rabbit (New Zealand white); conditions: NaF 10^-2 M; for Agonist-stimulated adenylate cyclase activity, fluorescent assay: Iso 10^-6 M, GppNHp 10^-4 M, n = 5; for stimulated activity, reduced assay volume: membrane suspension reduced from 25 μl to 5 μl, isoproterenol 10^-6 M
Method: as §1
A volume of 1.0 μl of either H2 O, NaF, guanylyl -5'-imidodiphosphate (GppNHp), isoproterenol, or isoproterenol+GppNHp was added to each of five reaction tubes and maintained at 0° C. Next, 25 μl of reaction mixture B (tris Acetate 100 mM, pH 7.4; KCl 20 mM; MgCl2 10.0 mM; phosphoenolpyruvate 20 mM; ATP 2.0 mM; GTP 0.02 mM; dithiothreitol 2.0 mM; bovine serum albumin 0.04%; theophylline 0.2 mM; pyruvate kinase 1.0 mg/ml) were added to each reaction tube. Finally, 25 μl of membrane suspension (40 to 45 μg protein) were added to each tube and the reaction was initiated by placing the tubes in a water bath at 37° C. After 30 minutes at 37° C., the reaction was stopped by the addition of 50 μl of 50 mM NaOH. The reaction mixture was heated for 5 minutes at 95° C.
1. A volume of 20-40 μl of reaction product from Part A was added to 100 μl of cleaning reaction mix (Tris-HCl 50 mM, pH 8.0; MgCl2 5 mM; CaCl2, 2 mM; 5'-nucleotidase 0.025 units/ml; apyrase 0.02 units/ml; adenosine deaminase 0.1 mg/ml). After 30 minutes at 37° C., the reaction was terminated by heating it at 95° C. for 5 minutes.
2. […] After 60 minutes at 37° C., 600 μl of 2-amino-2-methyl-1-propanol (AMP2) 50 mM, pH 9.9 was added to the reaction mix and the final concentration of NADPH was measured fluorometrically.
Although the basal activity is nearly 3 times higher in the nonradioactive method, the "fold" stimulation is similar for both receptor-mediated agonists (isoproterenol±GppNHp) as well by NaF, which directly stimulates adenylate cyclase.
The non-radioactive assay of Example 2 is at least 5 times more sensitive than the modified Salomon radioactive assay of Example 1. In Table 3, 5 μl of membrane preparation were used to measure adenylate cyclase activity in the non-radioactivity assay compared to 25 μl with the radioactive preparations. In a separate experiment, the volume of membrane suspension was reduced from 25 μl to 5 μl. By proportionally reducing the assay volume size, no difference in basal (58.4±3.9), isoproterenol (10^-6 M) (128±7.6) or NaF (10^-2 M) (331.9±42.8) stimulated activity was observed when results were compared to larger assay volumes present. EXAMPLE 5.

[3] = tested on: adenylate cyclase; assay: Adenylate cyclase activity of rabbit cardiac membranes by enzymatic fluorometric assay (ATP-ADP cycling), radioimmunoassay and Salomon's method; assay type: biochemical; conditions: isoproterenol 10^-7 and 10^-6 M; NaF 10^-2 M; GppNHp 10^-4 M; carbachol 10^-6 M; adenosine 10^-3 M; three methods
Method: Adenylate cyclase activities of six different rabbit cardiac membranes under basal and drug treated conditions were assessed using the fluorometric method of the present invention, radioimmunoassay and original [alpha-^32 P] ATP method developed by Salomon. The first part of the non-radioactive fluorescent technique for measuring adenylate cyclase activity is similar to the method described in Example 2 except that 3-isobutyl-1-methylxanthine (IBMX), rather than theophylline, was used to inhibit phosphodiesterase activity. Furthermore, a series of ATP-ADP enzyme-cycling reactions was used to amplify the cAMP signal, rather then the AMP stimulation of glycogen phosphorylase a utilized in previous examples. Use of the ATP-ADP enzymatic cycling amplification step can lengthen the assay duration, depending upon the desired assay sensitivity.
A volume of 1.0 μl of either H2 O, isoproterenol, NaF, guanylyl-5'-imidodiphosphate (GppNHp), carbachol, and adenosine was added to each of six reaction tubes on ice. Next, 25 μl of cyclase mix (100 mM Tris-acetate, pH 7.4; 4.2 mM KCl; 10 mM MgCl2; 20 mM phosphoenolpyruvate; 2 mM ATP; 20 μM GTP; 2 mM dithiothreitol; 0.04% bovine serum albumin; 0.2 mM 3-isobutyl-1-methylxanthine (IBMX); 100 μg/ml pyruvate kinase) was added to each reaction tube. The stored membrane was diluted with SET buffer in a concentration of 1.5 mg of protein/ml. Finally, 25 μl of membrane suspension, which contained 37.5 μg of protein, was added to each tube, and the reaction was initiated by placing the tubes in a water bath maintained at 37° C. After 30 minutes, the reaction was terminated by heating at 90° C. for 5 minutes. […] Then, 25 μl of cyclase mix and 25 μl of boiled membrane preparation were added to each tube. After 30 minutes, the reaction was terminated by heating at 90° C. for 5 minutes.
A volume of 5 μl of reaction of product from Part A was transferred to Pyrex® tubes. For external cAMP standard, a same volume of known amount of cAMP was also added to assay tubes. Newly synthesized cAMP was measured using the following enzymatic fluorometric assay.
1. A volume of 25 μl of "cleaning" reaction mix (100 mM Tris HCl, pH 8.0; 2 mM MgCl2; 2 units/ml apyrase; 2.5 units/ml 5'-nucleotidase; 50 μg/ml adenosine deaminase; 20 units/ml alkaline phosphatase) was added to each assay tube. The mixture was incubated at 37° C. for 30 minutes. Enzymes were then destroyed by heating for 10 minutes at 90° C.
2. A volume of 25 μl of a phosphodiesterase-containing reaction mix (100 mM Tris-HCl pH 8.0; 2 mM MgCl2; 0.01% bovine serum albumin; 60 μg/m; phosphodiesterase) was added to each assay tube from Step 1. After 60 minutes at 37° C., the assay tubes were heated at 90° C. for 5 minutes.
3. A volume of 25 μl of myokinase reaction mix (100 mM Tris-HCl, pH 8.0; 2 mM MgCl2; 225 mM KCl; 200 nM ATP; 8 mM phosphoenolpyruvate; 2 mM dithiothreitol; 0.01% bovine serum albumin; 24 μg/ml myokinase; 50 μg/ml pyruvate kinase) was added to the assay tubes from Step 2. The reactions were incubated at 37° C. for 2 hours.
4. […]
5. […] After 15 minutes at room temperature, the final concentration of NADPH was measured using a fluorometer (Optical Technology Devices, Inc., New York). The fluorometer was set such that a reading of 1 fluorometric unit was equivalent to 100 pmol of NADPH in 900 μl of buffer (50 mM Tris-HCl, pH 8.0). […]

[4] = tested on: adenylate cyclase; assay: Effect of theophylline on basal and isoproterenol-stimulated adenylate cyclase activity; assay type: biochemical; conditions: for Isoproterenol Stimulated adenylate cyclase activity / Fold Increase, isoproterenol stimulated: isoproterenol 10^-6 M; for Isoproterenol Stimulated adenylate cyclase activity / Basal (no isoproterenol) adenylate cyclase activity: n = 5; for Fold Increase, isoproterenol stimulated / Fold Increase, basal (no isoproterenol): vs control
From the text: To investigate the effects of theophylline on basal adenylate cyclase activity, increasing concentrations of theophylline were studied (Table 2).

[5] = tested on: glycogen phosphorylase a; assay: Removal of AMP by the cleaning reactions (glycogen phosphorylase a activity, NADPH fluorescence); assay type: biochemical; conditions: 25° C.
Method: AMP was incubated for 60 min at 37° C. with 50 μl of either buffer (100 mM Tris-HCl, pH 8.0) or a cleaning reaction mixture containing 100 mM Tris-HCl, pH 8.0; 5 mM MgCl2. 2 mM CaCl2, 0.02 units/ml apyrase; 0.025 units/ml 5'-nucleotidase and 0.1 mg/ml adenosine deaminase.

Nc1nc2c(ncn2[C@@H]2O[C@H](COP(=O)(O)OP(=O)(O)NP(=O)(O)O)[C@@H](O)[C@H]2O)c(=O)[nH]1 [GppNHp, guanylyl-5'-imidodiphosphate]
Agonist-stimulated adenylate cyclase activity, radioactive assay [1]: 64.9 ± 3.3 pmoles of cAMP/mg/min | Agonist-stimulated adenylate cyclase activity, fluorescent assay [2]: 185.3 ± 13.7 pmoles of cAMP/mg/min | effect on cAMP production [3]: increased production

[F-].[Na+] [NaF, Sodium Fluoride]
Agonist-stimulated adenylate cyclase activity, radioactive assay [1]: 106.2 ± 3.5 pmoles of cAMP/mg/min | Agonist-stimulated adenylate cyclase activity, fluorescent assay [2]: 346.7 ± 15.9 pmoles of cAMP/mg/min | stimulated activity, reduced assay volume [2]: 331.9±42.8 | effect on cAMP production [3]: increased production

Nc1ncnc2c1ncn2[C@@H]1O[C@H](CO)[C@@H](O)[C@H]1O [adenosine]
effect on cAMP production [3]: inhibited

C[N+](C)(C)CCOC(N)=O [carbachol]
effect on cAMP production [3]: inhibited

CC(C)NCC(O)c1ccc(O)c(O)c1 (centres unmarked) [isoproterenol]
Agonist-stimulated adenylate cyclase activity, radioactive assay [1]: 38.3 ± 2.3 pmoles of cAMP/mg/min | Agonist-stimulated adenylate cyclase activity, fluorescent assay [2]: 110.0 ± 3.3 pmoles of cAMP/mg/min | stimulated activity, reduced assay volume [2]: 128±7.6 | "fold" stimulation (agonist-stimulated activity/basal activity) of adenylate cyclase activity ([4]; at a given concentration of isoproterenol, in the presence of theophylline): constant | Isoproterenol Stimulated adenylate cyclase activity ([4]; control (no theophylline)): 51.73 ± 10.47 pmol/mg/min | effect on cAMP production [3]: increased cAMP production, in a concentration-dependent manner

Cn1c(=O)c2[nH]cnc2n(C)c1=O [theophylline]
Isoproterenol Stimulated adenylate cyclase activity ([4]; theophylline 10 μM): 85.58 ± 5.56 pmol/mg/min | Fold Increase, isoproterenol stimulated ([4]; theophylline 10 μM): 1.65 fold | Basal (no isoproterenol) adenylate cyclase activity ([4]; theophylline 10 μM): 44.72 ± 4.61 pmol/mg/min | Fold Increase, basal (no isoproterenol) ([4]; theophylline 10 μM): 1.46 fold | Isoproterenol Stimulated adenylate cyclase activity ([4]; theophylline 50 μM): 93.02 ± 3.55 pmol/mg/min | Fold Increase, isoproterenol stimulated ([4]; theophylline 50 μM): 1.80 fold | Basal (no isoproterenol) adenylate cyclase activity ([4]; theophylline 50 μM): 44.63 ± 5.93 pmol/mg/min | Fold Increase, basal (no isoproterenol) ([4]; theophylline 50 μM): 1.46 fold | Isoproterenol Stimulated adenylate cyclase activity ([4]; theophylline 100 μM): 104.21 ± 3.50 pmol/mg/min | Fold Increase, isoproterenol stimulated ([4]; theophylline 100 μM): 2.01 fold | Basal (no isoproterenol) adenylate cyclase activity ([4]; theophylline 100 μM): 59.94 ± 3.63 pmol/mg/min | Fold Increase, basal (no isoproterenol) ([4]; theophylline 100 μM): 1.91 fold | Isoproterenol Stimulated adenylate cyclase activity ([4]; theophylline 500 μM): 102.67 ± 2.86 pmol/mg/min | Fold Increase, isoproterenol stimulated ([4]; theophylline 500 μM): 1.98 fold | Basal (no isoproterenol) adenylate cyclase activity ([4]; theophylline 500 μM): 53.82 ± 4.37 pmol/mg/min | Fold Increase, basal (no isoproterenol) ([4]; theophylline 500 μM): 1.75 fold | basal activity is increased ([4]; theophylline 100-500 μM): approximately 100% | increase in basal activity ([4]; theophylline > 100 μM): no significant increase in basal activity was observed

adenosine 2'- and 3'-monophosphate [AMP]
glycogen phosphorylase a activity ([5]; in the presence of the cleaning reaction mixture): remains similar to the control buffer values | glycogen phosphorylase a activity ([5]; without the cleaning step): markedly stimulated
